For experiment [1], the target named is Aurora kinase C (Homo sapiens) (UniProt Q9UQB9). The experiment is described as follows: Inhibition of wild-type human full length AURKC (M1 to S275 residues) expressed in bacterial expression system at 1 uM by Kinomescan method relative to control.
Experiment [2] deals with Cyclin-dependent kinase 7 (Homo sapiens) (UniProt P50613). Put plainly: Inhibition of wild-type human full length CDK7 (M1 to L344 residues) expressed in mammalian expression system at 1 uM by Kinomescan method relative to control.
The test system of experiment [3] is Epidermal growth factor receptor (Homo sapiens), P00533 [G719S]. Put plainly: Inhibition of human partial length EGFR G719S mutant (R669 to V1011 residues) expressed in bacterial expression system at 1 uM by Kinomescan method relative to control.
Experiment [4] concerns the target Mitogen-activated protein kinase 7 (Homo sapiens) (UniProt Q13164). The experiment is described as follows: Inhibition of wild-type human partial length ERK5 (M1 to A409 residues) expressed in bacterial expression system at 1 uM by Kinomescan method relative to control.
In experiment [5] the target is Tyrosine-protein kinase Lyn (Homo sapiens) (UniProt P07948). The experiment is described as follows: Inhibition of wild-type human partial length LYN (C219 to Q511 residues) expressed in bacterial expression system at 1 uM by Kinomescan method relative to control.
In experiment [6] the target is MAP kinase-activated protein kinase 2 (Homo sapiens) (UniProt P49137). Put plainly: Inhibition of wild-type human partial length MAPKAPK2 (V48 to D345 residues) expressed in bacterial expression system at 1 uM by Kinomescan method relative to control.
Experiment [7] concerns the target MAP kinase-interacting serine/threonine-protein kinase 1 (Homo sapiens) (UniProt Q9BUB5). Put plainly: Inhibition of wild-type human full length MKNK1 (M1 to L424 residues) expressed in mammalian expression system at 1 uM by Kinomescan method relative to control.
In experiment [8] the target is Phosphorylase b kinase gamma catalytic chain, liver/testis isoform (Homo sapiens) (UniProt P15735). The experiment is described as follows: Inhibition of wild-type human partial length PHKG2 (M1 to W300 residues) expressed in bacterial expression system at 1 uM by Kinomescan method relative to control.
The target in experiment [9] is Serine/threonine-protein kinase pim-2 (Homo sapiens) (UniProt Q9P1W9). The experiment is described as follows: Inhibition of wild-type human partial length PIM2 (M1 to E291 residues) expressed in bacterial expression system at 1 uM by Kinomescan method relative to control.
Experiment [10] concerns the target Dual specificity protein kinase TTK (Homo sapiens) (UniProt P33981). Put plainly: Inhibition of wild-type human partial length TTK (N505 to V798 residues) expressed in bacterial expression system at 1 uM by Kinomescan method relative to control.
The target of experiment [11] is Tyrosine-protein kinase receptor TYRO3 (Homo sapiens) (UniProt Q06418). Put plainly: Inhibition of wild-type human partial length TYRO3 (S497 to T814 residues) expressed in bacterial expression system at 1 uM by Kinomescan method relative to control.
Chain of Tyrosine-protein kinase receptor TYRO3 (Homo sapiens) (Q06418 whole entry, the tested form may be a part): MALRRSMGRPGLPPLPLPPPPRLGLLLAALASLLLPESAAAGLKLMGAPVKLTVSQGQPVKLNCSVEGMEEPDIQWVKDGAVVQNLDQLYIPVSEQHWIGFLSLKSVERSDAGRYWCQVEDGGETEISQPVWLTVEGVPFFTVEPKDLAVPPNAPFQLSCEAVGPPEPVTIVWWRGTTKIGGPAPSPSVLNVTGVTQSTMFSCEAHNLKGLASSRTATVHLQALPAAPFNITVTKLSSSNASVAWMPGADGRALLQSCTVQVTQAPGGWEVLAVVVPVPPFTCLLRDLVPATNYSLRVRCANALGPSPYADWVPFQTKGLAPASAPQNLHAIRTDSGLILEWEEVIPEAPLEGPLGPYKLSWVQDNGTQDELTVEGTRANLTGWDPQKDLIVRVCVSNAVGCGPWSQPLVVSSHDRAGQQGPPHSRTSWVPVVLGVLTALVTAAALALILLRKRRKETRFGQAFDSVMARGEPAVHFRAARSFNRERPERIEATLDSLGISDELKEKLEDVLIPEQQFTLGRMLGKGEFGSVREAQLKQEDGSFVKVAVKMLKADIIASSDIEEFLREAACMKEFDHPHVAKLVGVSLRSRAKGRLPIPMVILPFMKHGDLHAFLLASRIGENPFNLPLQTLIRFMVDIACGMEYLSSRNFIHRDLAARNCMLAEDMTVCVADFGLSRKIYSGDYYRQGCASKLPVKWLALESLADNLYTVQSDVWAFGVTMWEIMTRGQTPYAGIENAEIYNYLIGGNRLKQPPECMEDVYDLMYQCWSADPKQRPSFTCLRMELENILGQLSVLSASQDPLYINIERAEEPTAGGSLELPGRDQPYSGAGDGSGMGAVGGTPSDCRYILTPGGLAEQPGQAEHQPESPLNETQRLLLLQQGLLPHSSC
Experiment [12] addresses Serine/threonine-protein kinase WNK4 (Homo sapiens) (UniProt Q96J92). Put plainly: Inhibition of wild-type human partial length WNK4 (A31 to D461 residues) expressed in mammalian expression system at 1 uM by Kinomescan method relative to control.
Experiment [13] deals with Mitogen-activated protein kinase kinase kinase 19 (Homo sapiens) (UniProt Q56UN5). The experiment is described as follows: Inhibition of wild-type human partial length YSK4 (T1019 to H1328 residues) expressed in mammalian expression system at 1 uM by Kinomescan method relative to control.
Chain of Mitogen-activated protein kinase kinase kinase 19 (Homo sapiens) (Q56UN5 whole entry, the tested form may be a part): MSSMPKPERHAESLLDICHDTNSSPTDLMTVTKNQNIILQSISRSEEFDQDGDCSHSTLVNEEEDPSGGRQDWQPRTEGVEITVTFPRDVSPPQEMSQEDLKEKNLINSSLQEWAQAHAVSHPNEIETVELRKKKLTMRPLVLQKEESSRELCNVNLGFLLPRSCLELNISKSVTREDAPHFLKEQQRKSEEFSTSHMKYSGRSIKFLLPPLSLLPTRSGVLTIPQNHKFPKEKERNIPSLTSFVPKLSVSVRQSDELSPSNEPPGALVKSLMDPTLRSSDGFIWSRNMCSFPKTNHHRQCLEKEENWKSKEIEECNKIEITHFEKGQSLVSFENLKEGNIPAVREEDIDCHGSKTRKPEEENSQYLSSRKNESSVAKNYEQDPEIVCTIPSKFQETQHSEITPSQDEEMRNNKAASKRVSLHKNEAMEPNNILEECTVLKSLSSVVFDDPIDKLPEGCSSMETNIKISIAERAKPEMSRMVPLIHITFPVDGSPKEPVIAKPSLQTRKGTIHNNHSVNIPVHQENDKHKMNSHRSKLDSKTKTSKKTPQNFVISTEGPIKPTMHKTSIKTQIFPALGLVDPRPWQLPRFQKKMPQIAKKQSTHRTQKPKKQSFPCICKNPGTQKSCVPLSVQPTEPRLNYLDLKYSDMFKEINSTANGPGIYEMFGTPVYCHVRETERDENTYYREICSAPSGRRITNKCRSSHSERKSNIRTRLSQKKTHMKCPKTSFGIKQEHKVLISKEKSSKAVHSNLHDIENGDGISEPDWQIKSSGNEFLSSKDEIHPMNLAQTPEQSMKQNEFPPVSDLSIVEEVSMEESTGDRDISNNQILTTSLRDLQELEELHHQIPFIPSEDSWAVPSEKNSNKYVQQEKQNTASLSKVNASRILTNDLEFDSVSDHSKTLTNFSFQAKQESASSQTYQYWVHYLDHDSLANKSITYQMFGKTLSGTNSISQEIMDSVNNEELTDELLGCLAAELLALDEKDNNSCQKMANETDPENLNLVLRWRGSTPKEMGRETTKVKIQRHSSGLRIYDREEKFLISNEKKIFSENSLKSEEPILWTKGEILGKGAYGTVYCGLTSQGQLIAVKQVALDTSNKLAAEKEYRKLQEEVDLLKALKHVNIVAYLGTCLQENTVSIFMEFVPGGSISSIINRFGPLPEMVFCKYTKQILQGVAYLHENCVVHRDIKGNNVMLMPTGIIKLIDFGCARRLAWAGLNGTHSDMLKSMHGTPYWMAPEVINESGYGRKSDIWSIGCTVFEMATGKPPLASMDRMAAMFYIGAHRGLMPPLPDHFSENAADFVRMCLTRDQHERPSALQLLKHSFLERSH
Experiment [14] deals with Citron Rho-interacting kinase (Homo sapiens) (UniProt O14578). Put plainly: Inhibition of wild-type human partial length CIT (M68 to E432 residues) expressed in bacterial expression system at 10 uM by Kinomescan method relative to control.
Experiment [15] has as its target Ephrin type-A receptor 3 (Homo sapiens) (UniProt P29320). The experiment is described as follows: Inhibition of wild-type human partial length EPHA3 (D604 to K889 residues) expressed in bacterial expression system at 10 uM by Kinomescan method relative to control.
Experiment [16] concerns the target Glycogen synthase kinase-3 alpha (Homo sapiens) (UniProt P49840). The experiment is described as follows: Inhibition of wild-type human full length GSK3A (M1 to S483 residues) expressed in bacterial expression system at 10 uM by Kinomescan method relative to control.
In experiment [17] the target is Homeodomain-interacting protein kinase 3 (Homo sapiens) (UniProt Q9H422). The experiment is described as follows: Inhibition of wild-type human partial length HIPK3 (M153 to N562 residues) expressed in mammalian expression system at 10 uM by Kinomescan method relative to control.
The target of experiment [18] is Leucine-rich repeat serine/threonine-protein kinase 2 (Homo sapiens) (UniProt Q5S007). Put plainly: Inhibition of wild-type human partial length LRRK2 (H970 to E2527 residues) expressed in mammalian expression system at 10 uM by Kinomescan method relative to control.
Experiment [19] addresses Serine/threonine-protein kinase MARK1 (Homo sapiens) (UniProt Q9P0L2). The experiment is described as follows: Inhibition of wild-type human partial length MARK1 (Q30 to T341 residues) expressed in bacterial expression system at 10 uM by Kinomescan method relative to control.
The target of experiment [20] is Maternal embryonic leucine zipper kinase (Homo sapiens) (UniProt Q14680). The experiment is described as follows: Inhibition of wild-type human full length MELK (M1 to V651 residues) expressed in bacterial expression system at 10 uM by Kinomescan method relative to control.
The target of experiment [21] is Serine/threonine-protein kinase 3 (Homo sapiens) (UniProt Q13188). Put plainly: Inhibition of wild-type human partial length MST2 (D17 to E318 residues) expressed in bacterial expression system at 10 uM by Kinomescan method relative to control.
In experiment [22] the target is Serine/threonine-protein kinase Nek5 (Homo sapiens) (UniProt Q6P3R8). Put plainly: Inhibition of wild-type human partial length NEK5 (M1 to M279 residues) expressed in bacterial expression system at 10 uM by Kinomescan method relative to control.
In experiment [23] the target is Mitogen-activated protein kinase kinase kinase 14 (Homo sapiens) (UniProt Q99558). The experiment is described as follows: Inhibition of wild-type human partial length NIK (L318 to P947 residues) expressed in mammalian expression system at 10 uM by Kinomescan method relative to control.
Experiment [24] has as its system Phosphatidylinositol 4,5-bisphosphate 3-kinase catalytic subunit alpha isoform (Homo sapiens), P42336 [I800L]. Put plainly: Inhibition of human partial length PIK3CA I800L mutant (R108 to N1068 residues) expressed in mammalian expression system at 10 uM by Kinomescan method relative to control.
Experiment [25] addresses Serine/threonine-protein kinase D2 (Homo sapiens) (UniProt Q9BZL6). Put plainly: Inhibition of wild-type human partial length PRKD2 (A519 to E838 residues) expressed in bacterial expression system at 10 uM by Kinomescan method relative to control.
Experiment [26] concerns the target Rho-associated protein kinase 2 (Homo sapiens) (UniProt O75116). The experiment is described as follows: Inhibition of wild-type human partial length ROCK2 (M1 to T431 residues) expressed in mammalian expression system at 10 uM by Kinomescan method relative to control.
The target in experiment [27] is Serine/threonine-protein kinase ULK2 (Homo sapiens) (UniProt Q8IYT8). The experiment is described as follows: Inhibition of wild-type human partial length ULK2 (M1 to S301 residues) expressed in mammalian expression system at 10 uM by Kinomescan method relative to control.

What is called inhibition is the percentage by which the read-out fell short of the control. A lower inhibition goes with little suppression.

Chain of Rho-associated protein kinase 2 (Homo sapiens) (O75116 whole entry, looked up, the tested form may be a part): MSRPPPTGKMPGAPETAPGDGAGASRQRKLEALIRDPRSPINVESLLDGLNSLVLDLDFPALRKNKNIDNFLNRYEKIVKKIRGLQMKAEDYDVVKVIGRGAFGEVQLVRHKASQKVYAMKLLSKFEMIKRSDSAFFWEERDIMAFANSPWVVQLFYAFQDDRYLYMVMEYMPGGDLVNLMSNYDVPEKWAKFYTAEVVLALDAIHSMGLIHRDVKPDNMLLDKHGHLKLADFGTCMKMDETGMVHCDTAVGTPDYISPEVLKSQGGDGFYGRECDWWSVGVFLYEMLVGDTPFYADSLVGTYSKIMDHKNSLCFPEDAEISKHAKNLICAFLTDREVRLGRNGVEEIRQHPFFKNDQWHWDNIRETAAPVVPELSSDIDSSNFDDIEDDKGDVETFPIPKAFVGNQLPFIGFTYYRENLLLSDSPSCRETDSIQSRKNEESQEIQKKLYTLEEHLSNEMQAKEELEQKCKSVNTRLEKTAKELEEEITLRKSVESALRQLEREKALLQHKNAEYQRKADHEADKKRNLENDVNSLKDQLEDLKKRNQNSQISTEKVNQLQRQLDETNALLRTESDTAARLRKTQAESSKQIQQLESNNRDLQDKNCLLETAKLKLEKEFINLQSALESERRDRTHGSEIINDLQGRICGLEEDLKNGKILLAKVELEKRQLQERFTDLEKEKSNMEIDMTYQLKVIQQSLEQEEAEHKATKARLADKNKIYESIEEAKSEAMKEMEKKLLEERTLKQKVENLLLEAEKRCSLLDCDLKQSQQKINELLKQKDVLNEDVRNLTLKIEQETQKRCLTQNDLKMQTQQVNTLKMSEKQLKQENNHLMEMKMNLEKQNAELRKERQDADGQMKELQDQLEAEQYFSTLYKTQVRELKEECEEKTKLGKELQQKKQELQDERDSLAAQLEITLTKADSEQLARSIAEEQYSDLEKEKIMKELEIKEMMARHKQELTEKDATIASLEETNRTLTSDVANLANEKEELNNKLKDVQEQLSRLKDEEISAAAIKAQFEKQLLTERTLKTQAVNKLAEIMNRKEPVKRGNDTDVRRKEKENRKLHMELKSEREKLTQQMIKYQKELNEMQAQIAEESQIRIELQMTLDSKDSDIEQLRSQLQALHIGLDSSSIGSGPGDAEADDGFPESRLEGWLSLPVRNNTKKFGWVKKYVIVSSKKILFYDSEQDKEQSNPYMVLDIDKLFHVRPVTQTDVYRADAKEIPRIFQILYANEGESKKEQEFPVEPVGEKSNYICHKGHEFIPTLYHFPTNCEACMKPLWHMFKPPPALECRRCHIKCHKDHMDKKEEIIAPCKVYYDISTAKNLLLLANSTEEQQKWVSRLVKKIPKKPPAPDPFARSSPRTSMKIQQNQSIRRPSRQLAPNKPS
Chain of Mitogen-activated protein kinase 7 (Homo sapiens) (Q13164 2-816 limits assumed): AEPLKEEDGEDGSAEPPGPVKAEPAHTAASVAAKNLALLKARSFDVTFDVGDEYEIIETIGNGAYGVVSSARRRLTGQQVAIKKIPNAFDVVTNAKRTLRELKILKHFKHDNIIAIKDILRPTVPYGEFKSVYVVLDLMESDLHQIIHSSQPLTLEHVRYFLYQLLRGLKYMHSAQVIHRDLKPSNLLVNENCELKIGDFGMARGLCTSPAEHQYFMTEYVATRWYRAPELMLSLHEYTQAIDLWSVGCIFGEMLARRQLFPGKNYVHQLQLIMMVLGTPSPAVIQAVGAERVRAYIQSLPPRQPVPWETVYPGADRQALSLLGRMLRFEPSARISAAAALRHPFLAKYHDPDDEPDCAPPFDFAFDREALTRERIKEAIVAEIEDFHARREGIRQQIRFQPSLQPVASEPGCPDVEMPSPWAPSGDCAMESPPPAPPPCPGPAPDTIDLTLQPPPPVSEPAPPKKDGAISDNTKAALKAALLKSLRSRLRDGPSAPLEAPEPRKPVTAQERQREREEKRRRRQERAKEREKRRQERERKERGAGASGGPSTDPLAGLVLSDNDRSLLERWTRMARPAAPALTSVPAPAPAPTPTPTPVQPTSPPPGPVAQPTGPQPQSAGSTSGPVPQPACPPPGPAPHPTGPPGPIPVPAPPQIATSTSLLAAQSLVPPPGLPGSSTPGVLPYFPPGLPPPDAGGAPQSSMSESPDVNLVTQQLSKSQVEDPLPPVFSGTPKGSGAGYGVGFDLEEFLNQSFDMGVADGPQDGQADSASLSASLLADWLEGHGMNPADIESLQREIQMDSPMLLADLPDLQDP
Chain of MAP kinase-interacting serine/threonine-protein kinase 1 (Homo sapiens) (Q9BUB5 whole entry, looked up, the tested form may be a part, canonical isoform): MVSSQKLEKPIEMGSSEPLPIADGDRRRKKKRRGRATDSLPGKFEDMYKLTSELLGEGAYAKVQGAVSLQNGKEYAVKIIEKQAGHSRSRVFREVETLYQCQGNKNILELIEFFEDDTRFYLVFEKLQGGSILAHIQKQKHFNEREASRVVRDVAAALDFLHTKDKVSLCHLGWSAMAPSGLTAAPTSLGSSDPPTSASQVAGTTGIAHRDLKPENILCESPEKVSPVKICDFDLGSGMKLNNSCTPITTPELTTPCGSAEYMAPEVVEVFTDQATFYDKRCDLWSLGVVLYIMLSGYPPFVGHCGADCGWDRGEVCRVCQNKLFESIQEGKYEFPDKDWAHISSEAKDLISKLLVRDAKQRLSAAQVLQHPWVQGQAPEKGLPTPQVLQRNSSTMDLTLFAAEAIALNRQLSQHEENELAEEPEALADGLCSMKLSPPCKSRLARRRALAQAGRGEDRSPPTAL

As to `O=C(Nc1cccc([C@@H]2CN(c3ncnc4[nH]ccc34)CCN2CCO)c1)Nc1c(F)cccc1N1CCCC1`, the inhibition turned out to be 33% in experiment [1]; 100% in experiment [2]; 90% in experiment [3]; 100% in experiment [4]; 72% in experiment [5]; 100% in experiment [6]. Besides, the inhibition stood at 88% in [7]; 100% in experiment [8]; 100% in experiment [9]; 98% in experiment [10]; 100% in [11]; 96% in experiment [12]. In experiment [13], the inhibition stood at 40%.
As to `O=C(Nc1cccc([C@H]2CCCN(c3ncnc4[nH]ccc34)C2)c1)Nc1ccccc1N1CCCC1`, the inhibition was determined as 0.2% in experiment [14]; 74% in experiment [15]; 100% in [16]; 47% in experiment [17]; 96% in experiment [18]; 81% in experiment [19]. The inhibition in [20] worked out at 36%; in experiment [21], 54%; in [22], 100%; in [23], 75%; in [24], 34%; in experiment [25], 85%. For the same compound, the inhibition in [26] came to 49%; in experiment [27], 50%.
